Consider ten compounds from article PMC10458203, “The Amoebicidal Activity of Diferrocenyl Derivatives: A Significant Dependence on the Electronic Environment” (Molecules, 2023).

Values joined by “and” are separate entries in the source; they are usually repeats but may differ in a detail not shown here. Equal entries are not always repeated. Where two headings read alike, the source gives them in different places. Marks after values point to notes of the source that are not given here.

A word on the logP: it is a log measure of how a compound divides between an organic and an aqueous phase.

For series [1] the following is noted: RP-TLC, methanol/water 80:20; standard deviation in parentheses, three determinations.
Series [2] has as its system trophozoites of Entamoeba histolytica HM1:IMSS strain. Put plainly: Amoebicidal (antiproliferative) activity on trophozoite cultures, viability by trypan blue / CFDA-propidium iodide. As to conditions: for increase in the amoebicidal activity: compared with the parent compound 3a. The format is cell-based. The method, then:
Trophozoites of the E. histolytica HM1:IMSS strain were axenically grown by placing 1 × 10^5 live trophozoites in tubes with 3 mL of supplemented TYI-S33 medium. Amoebic trophozoite viability exposed to 1000, 100, 10, 1, 0.1, and 0.01 μM of each experimental compound was determined at 24, 48, and 72 h with trypan blue vital marker and confirmed with the fluorescent dyes carboxyfluorescein diacetate (CFDA) and propidium iodide. Either 100 μL of Trypan blue 0.4% or 1 μL of 5 μM CFDA (Invitrogen Molecular Probes, Inc., Eugene, OR, USA) and 1 μL of 1.5 μM propidium iodide were added to samples of 100 μL containing around 1 × 10^4 treated trophozoites, mixed, and incubated at room temperature for 15 min. The final solutions were mixed and incubated at room temperature for 15 min to perform the counting with an Olympus BX51 fluorescence microscope. The IC50 values were calculated by a multivariable regression using the amoebic viability curves for the tree times evaluated on GraphPad Prism 10.0.

Details of series [3]: method as in doi:10.1016/j.jorganchem.2017.05.002. As to conditions: cited from earlier work.
The conditions of series [4]: cited from earlier work.
Series [5] deals with amoeba trophozoites. Set-up: method as in PMID 27863300. As to conditions: cited from earlier work.
Series [6] is described as follows: Electrochemical measurements (voltammetry) of redox potentials in acetonitrile. The format is physicochemical. The conditions noted are these: TBATFB 0.1 M; for E(I) half-wave redox potential / E(II) half-wave redox potential: vs. Fc/Fc+. The method, then: Two oxidation (Ia, IIa) and two reduction (Ic, IIc) processes with half-wave potential values E(I) = −0.022 V and E(II) = 0.164 V were observed. The electronic communication between both Ferrocene units was evaluated using the ΔE(II–I) to calculate the comproportionation constant (Kcom). According to the Kcom value 1563, the mixed-valence compound is a Class II compound in the Robin–Day classification with slight electronic delocalization between the two redox centers. This slight communication between iron ions allows the identification of two independent and sequential redox processes. It confirms the absence of chemical or adsorption processes associated with redox transformation (Figure 1b). Similar results were found for compound 3e (Table 1). The relationship between redox potential values found for compounds 3a–e follows the equation EII(V) = 1.01EI(V) + 0.1897 (R^2 = 0.9894, F = 280.7, Figure 2a).
Individual diferrocenylvinyloxazolines 3a–e (Figure 6) were isolated using Al2O3 column chromatography (activity grade III, elution with hexane-ether 4:1). In the solid state, fine crystalline substances of orange color represent them. The E and Z […] could be separated by a chromatographic column. In this work, only Z-enantiomers were employed, as described in the compound characterization. The structures of compounds 3a–e were determined based on mass spectrometry, FT-IR, ^1H, and ^13C NMR spectroscopy, and elemental analysis. UV–vis spectra of 3a–e were acquired using acetonitrile solutions at different concentrations in a Genesis 30 Spectrophotometer (Thermo Scientific, Waltham, MA, USA) from 325 to 1100 nm. Electrochemical measurements for compounds 3c and 3e were performed using conditions reported previously. Briefly, acetonitrile solutions at different concentrations of the compound with tetrabutylammonium tetrafluoroborate (TBATFB) 0.1M as a supporting electrolyte, platinum disk as a working electrode, and Ag/AgNO3 as a reference in a potentiostat/galvanostat (EG&G PAR 273). The scan rate was 0.1 V/s, from open circuit potential to positive direction. Bubbling N2 deoxygenated the working solution before each measurement.

[7] abbreviates: E. histolytica HM1:IMSS trophozoites, viability curves at 24, 48 and 72 h, read-out: IC50.
The mark [8] stands for this setting: logarithmic units of IC50 in µM.

With “2-(Z-2,3-diferrocenylvinyl)-4,5-dihydrooxazole [Compound 3a]”, in series [1], the log partition coefficient (logP) is recorded as 4.42 (0.2). Also, the IC50 in series [2] (setting [7]) came out at 1000 ± 46 µM. Besides, in series [2] (setting [8]), the “−log (1/IC50)” value is listed as 3. Also, in series [3] (acetonitrile, vs. Fc/Fc+), the “E(I) redox potential” value is 0.116 V and 0.116 ^a V; the “E(II) redox potential” value is 0.305 V and 0.305 ^a V. In series [3], the “E(I) redox potential” value was 116 mV and the “E(II) redox potential” value is reported as 305 mV.

For the compound `C(=C(/C1=NCCS1)[c-]1cccc1)/[c-]1cccc1.[Fe+2].[Fe+2].c1cc[cH-]c1.c1cc[cH-]c1` [2-(Z-1,2-diferrocenylvinyl)-4,5-dihydro-1,3-thiazole], in series [4], the “E(I) redox potential” value was 0.251 V and the “E(II) redox potential” value is reported as 0.408 V.

Consider `C(=C(/C1=NCCN1)[c-]1cccc1)/[c-]1cccc1.[Fe+2].[Fe+2].c1cc[cH-]c1.c1cc[cH-]c1` [2-(Z-1,2-diferrocenylvinyl)-imidazoline], for which, in series [4], the “E(I) redox potential” value is 0.250 V and the “E(II) redox potential” value was 0.437 V.

Regarding `COc1cc2c(c(OC)c1OC)CCC1C2=Nc2ccccc2SC1[c-]1cccc1.[Fe+2].c1cc[cH-]c1` (centres unmarked) [(2,3,4-trimethoxy-5,6,6a,7-tetrahydrobenzo[b]naphtho [1,2-e][1,4]thiazepin-7-yl)ferrocene], the IC50 in series [5] is 12.6 µM. The redox potential entry in series [4] was “+0.042 V”.

On to `[Fe+2].c1cc[cH-]c1.c1ccc2c(c1)CCC1C2=Nc2ccccc2SC1[c-]1cccc1` (centres unmarked) [(5,6,6a,7-tetrahydrobenzo[b]naphtho [1,2-e][1,4]thiazepin-7-yl)ferrocene], for which the IC50 in series [5] is 7.5 µM. Besides, the redox potential entry in series [4] was “+0.005 V”.

Regarding `CC1COC(/C(=C\[c-]2cccc2)[c-]2cccc2)=N1.[Fe+2].[Fe+2].c1cc[cH-]c1.c1cc[cH-]c1` (centres unmarked) [Compound 3b, 2-(Z-1,2-diferrocenylvinyl)-4-methyl-4,5-dihydrooxazole], the log partition coefficient (logP) in series [1] is listed as 4.76 (0.1). In series [2] (setting [7]), the IC50 was 100 ± 9 µM. In series [2], the “increase in the amoebicidal activity” value came to 10 fold. The “−log (1/IC50)” value in series [2] (setting [8]) was 2. Besides, the “E(I) redox potential” value in series [3] (acetonitrile, vs. Fc/Fc+) is recorded as −0.019 ^a V; in series [3] it was −19 mV. The “E(II) redox potential” value in series [3] (acetonitrile, vs. Fc/Fc+) is recorded as 0.182 ^a V; in series [3], 182 mV.

Consider `CC(C)C1COC(/C(=C\[c-]2cccc2)[c-]2cccc2)=N1.[Fe+2].[Fe+2].c1cc[cH-]c1.c1cc[cH-]c1` (centres unmarked) [Compound 3c, 2-(Z-1,2-diferrocenylvinyl)-4-isopropyl-4,5-dihydrooxazole], for which, in series [6], the “E(I) redox potential” value is on record as −22 mV, the “E(II) redox potential” value worked out at 167 mV, the “E(I) half-wave redox potential” value was −0.022 V and the “E(II) half-wave redox potential” value is 0.167 V. Further, in series [1], the lipophilicity (logP) is listed as 5.48 (0.1). Moreover, in series [2] (setting [7]), the IC50 stood at 1890 µM.

In the case of `C(=C(/C1=NC(c2ccccc2)CO1)[c-]1cccc1)/[c-]1cccc1.[Fe+2].[Fe+2].c1cc[cH-]c1.c1cc[cH-]c1` (centres unmarked) [Compound 3d, 2-(Z-1,2-diferrocenylvinyl)-4-phenyl-4,5-dihydrooxazole], in series [1], the lipophilicity (logP) is on record as 5.62 (0.2). Besides, in series [2] (setting [7]), the IC50 stood at 23 ± 3 µM. For the same compound, in series [2], the “increase in the amoebicidal activity” value is listed as “more than 40 fold”. In addition, the “−log (1/IC50)” value in series [2] (setting [8]) stood at 1.36. In series [3] (acetonitrile, vs. Fc/Fc+), the “E(I) redox potential” value is listed as −0.045 ^a V and the “E(II) redox potential” value is 0.135 ^a V. In addition, in series [3], the “E(I) redox potential” value is given as −45 mV and the “E(II) redox potential” value is reported as 135 mV.

For `C(=C(/C1=NC(Cc2ccccc2)CO1)[c-]1cccc1)/[c-]1cccc1.[Fe+2].[Fe+2].c1cc[cH-]c1.c1cc[cH-]c1` (centres unmarked) [Compound 3e, 2-(Z-1,2-diferrocenylvinyl)-4-benzyl-4,5-dihydrooxazole], in series [6], the “E(I) redox potential” value was −65 mV, the “E(II) redox potential” value was 124 mV, the “E(I) half-wave redox potential” value was −0.065 V and the “E(II) half-wave redox potential” value is given as 0.124 V. Further, in series [1], the lipophilicity (logP) was 6.1 (0.09). In addition, in series [2] (setting [7]), the IC50 was found to be 385 ± 11 µM. The “increase in the amoebicidal activity” value in series [2] turned out to be 2.5 fold. Also, the “−log (1/IC50)” value in series [2] (setting [8]) turned out to be 2.58.

For the compound `Cc1ncc([N+](=O)[O-])n1CCO` [Metronidazole, reference compound], the IC50 in series [2] (Entamoeba histolytica, E. histolytica HM1:IMSS trophozoites, viability curves at 24, 48 and 72 h, read-out: IC50) was 7 ± 0.9 µM; in series [2] (Entamoeba histolytica, logarithmic units of IC50 in µM, read-out: −log (1/IC50) (converted)), 6.92 µM.
